The numbers were not newly measured in patent US10821075B1, “Compositions for topical application of a medicaments onto a mammalian body surface” (priority 2017, dated 2020), which cites them from elsewhere.

What is called pKa is the pH at which an ionisable group is half protonated.

The conditions of the data set: weak acid drug.

Molecules are shown by their SMILES.

Turning to `CC(C(=O)O)c1cccc(C(=O)c2ccccc2)c1` (stereo not shown) [ketoprofen], the pKa is recorded as 4.30.
